Assay [1] concerns ATR kinase (CHK1 phosphorylation at Ser345) in HeLa S3 cells. Description: ATR assay in HeLa S3 cells (CHK1 p-Ser345 AlphaScreen SureFire, gemcitabine). Note: gemcitabine 1.5 µM. The following applies: Homo sapiens, HeLa S3, HeLa S3 whole cell assay, 3.5 to 4 hours. The format is cell-based. The method, then: Media was then replaced by 20 μL per well Opti-MEM no phenol red and 5 μL of serial diluted compounds were added to the assay plate for a final DMSO concentration of 0.5%. […] The plate was incubated at 37° C., 1-5% CO2 for 3.5 to 4 hours.
For orientation: In Alpha technology, singlet oxygen from a donor bead excites a nearby acceptor bead.

Assay [2] addresses ATR/ATRIP (Homo sapiens (Human), UniProt Q13535). Description: ATR/ATRIP enzymatic assay (AlphaScreen, phosphorylation of p53). As to conditions: read-out: ATR IC50; recombinant ATR/ATRIP 0.63 nM, 25 nM GST-p53, 3 μM ATP, 1 hour room temperature.
Description: Detection of ATR kinase activity utilized the AlphaScreen system to measure the phosphorylation of the substrate protein p53. […] Plates were incubated at room temperature in the dark for 4 hours and read on a BMG Polarstar using AlphaScreen dedicated filters. […] IC50 values were determined using a 4-parameter fit algorithm.

Some results are limits rather than exact numbers.

Chain of ATR/ATRIP (Q13535 whole entry): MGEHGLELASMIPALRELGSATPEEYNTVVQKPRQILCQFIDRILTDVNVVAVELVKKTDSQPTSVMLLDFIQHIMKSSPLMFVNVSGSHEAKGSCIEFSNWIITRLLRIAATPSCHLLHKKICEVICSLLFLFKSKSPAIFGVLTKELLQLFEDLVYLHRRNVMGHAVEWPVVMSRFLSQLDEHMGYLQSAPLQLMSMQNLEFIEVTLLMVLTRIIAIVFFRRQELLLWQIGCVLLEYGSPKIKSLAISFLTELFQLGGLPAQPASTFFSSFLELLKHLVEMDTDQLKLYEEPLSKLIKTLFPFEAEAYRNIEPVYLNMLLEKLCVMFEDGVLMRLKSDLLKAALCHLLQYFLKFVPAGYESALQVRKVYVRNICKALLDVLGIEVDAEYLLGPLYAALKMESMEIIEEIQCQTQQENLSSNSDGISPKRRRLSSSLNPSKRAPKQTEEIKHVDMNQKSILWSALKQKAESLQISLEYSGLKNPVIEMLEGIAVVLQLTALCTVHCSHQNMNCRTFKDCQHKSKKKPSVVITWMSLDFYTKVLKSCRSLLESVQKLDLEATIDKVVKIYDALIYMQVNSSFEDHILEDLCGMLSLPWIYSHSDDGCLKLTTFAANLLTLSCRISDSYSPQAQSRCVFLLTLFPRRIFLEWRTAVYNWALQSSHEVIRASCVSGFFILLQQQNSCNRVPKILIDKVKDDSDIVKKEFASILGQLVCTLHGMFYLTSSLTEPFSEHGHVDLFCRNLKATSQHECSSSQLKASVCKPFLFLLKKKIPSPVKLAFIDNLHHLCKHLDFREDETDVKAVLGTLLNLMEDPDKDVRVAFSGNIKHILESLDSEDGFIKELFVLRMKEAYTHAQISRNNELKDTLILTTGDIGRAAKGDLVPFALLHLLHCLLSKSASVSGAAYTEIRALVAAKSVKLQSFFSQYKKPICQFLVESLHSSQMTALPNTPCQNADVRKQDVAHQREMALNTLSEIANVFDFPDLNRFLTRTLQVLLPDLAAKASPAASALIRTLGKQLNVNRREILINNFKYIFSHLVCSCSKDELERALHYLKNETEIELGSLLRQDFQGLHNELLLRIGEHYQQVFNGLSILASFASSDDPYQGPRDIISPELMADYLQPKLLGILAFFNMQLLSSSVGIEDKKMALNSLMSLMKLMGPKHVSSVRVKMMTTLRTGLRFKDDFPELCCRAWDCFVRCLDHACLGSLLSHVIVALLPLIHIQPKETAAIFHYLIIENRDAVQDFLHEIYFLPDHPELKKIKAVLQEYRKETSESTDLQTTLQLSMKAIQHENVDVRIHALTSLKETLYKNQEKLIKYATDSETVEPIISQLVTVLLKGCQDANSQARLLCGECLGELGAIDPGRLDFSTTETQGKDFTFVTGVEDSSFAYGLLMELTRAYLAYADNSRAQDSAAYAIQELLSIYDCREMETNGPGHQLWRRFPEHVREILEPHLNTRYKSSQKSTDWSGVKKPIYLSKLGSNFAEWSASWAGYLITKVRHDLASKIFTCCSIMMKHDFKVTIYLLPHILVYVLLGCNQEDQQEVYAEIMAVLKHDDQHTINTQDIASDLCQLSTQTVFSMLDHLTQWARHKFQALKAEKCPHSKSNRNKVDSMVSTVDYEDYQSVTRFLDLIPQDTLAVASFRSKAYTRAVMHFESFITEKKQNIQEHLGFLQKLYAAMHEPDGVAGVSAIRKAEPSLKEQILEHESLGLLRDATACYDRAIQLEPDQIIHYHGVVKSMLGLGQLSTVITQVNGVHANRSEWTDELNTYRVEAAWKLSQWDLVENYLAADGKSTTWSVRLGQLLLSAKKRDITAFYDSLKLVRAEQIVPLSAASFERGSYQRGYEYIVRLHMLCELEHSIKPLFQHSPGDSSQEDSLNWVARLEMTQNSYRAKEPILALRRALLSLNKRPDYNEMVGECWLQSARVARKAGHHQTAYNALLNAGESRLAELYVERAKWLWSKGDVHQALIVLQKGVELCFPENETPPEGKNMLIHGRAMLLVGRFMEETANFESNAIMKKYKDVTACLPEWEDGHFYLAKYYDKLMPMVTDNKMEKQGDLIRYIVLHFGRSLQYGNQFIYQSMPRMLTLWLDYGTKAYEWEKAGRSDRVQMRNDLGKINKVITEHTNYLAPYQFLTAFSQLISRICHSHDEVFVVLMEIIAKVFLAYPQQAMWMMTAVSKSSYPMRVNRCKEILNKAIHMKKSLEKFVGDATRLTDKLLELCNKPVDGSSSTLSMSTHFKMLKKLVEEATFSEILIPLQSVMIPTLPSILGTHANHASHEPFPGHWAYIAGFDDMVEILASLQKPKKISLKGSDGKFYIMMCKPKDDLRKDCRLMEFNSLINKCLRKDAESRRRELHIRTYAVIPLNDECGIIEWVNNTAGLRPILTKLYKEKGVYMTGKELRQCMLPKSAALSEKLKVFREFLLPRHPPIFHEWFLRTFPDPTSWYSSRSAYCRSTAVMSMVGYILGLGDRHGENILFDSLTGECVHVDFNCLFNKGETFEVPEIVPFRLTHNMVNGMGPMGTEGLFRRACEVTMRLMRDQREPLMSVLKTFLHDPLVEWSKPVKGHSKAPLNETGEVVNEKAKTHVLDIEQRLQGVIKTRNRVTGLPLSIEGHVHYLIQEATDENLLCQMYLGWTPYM
Chain of ATR/ATRIP (Q8WXE1 whole entry partner): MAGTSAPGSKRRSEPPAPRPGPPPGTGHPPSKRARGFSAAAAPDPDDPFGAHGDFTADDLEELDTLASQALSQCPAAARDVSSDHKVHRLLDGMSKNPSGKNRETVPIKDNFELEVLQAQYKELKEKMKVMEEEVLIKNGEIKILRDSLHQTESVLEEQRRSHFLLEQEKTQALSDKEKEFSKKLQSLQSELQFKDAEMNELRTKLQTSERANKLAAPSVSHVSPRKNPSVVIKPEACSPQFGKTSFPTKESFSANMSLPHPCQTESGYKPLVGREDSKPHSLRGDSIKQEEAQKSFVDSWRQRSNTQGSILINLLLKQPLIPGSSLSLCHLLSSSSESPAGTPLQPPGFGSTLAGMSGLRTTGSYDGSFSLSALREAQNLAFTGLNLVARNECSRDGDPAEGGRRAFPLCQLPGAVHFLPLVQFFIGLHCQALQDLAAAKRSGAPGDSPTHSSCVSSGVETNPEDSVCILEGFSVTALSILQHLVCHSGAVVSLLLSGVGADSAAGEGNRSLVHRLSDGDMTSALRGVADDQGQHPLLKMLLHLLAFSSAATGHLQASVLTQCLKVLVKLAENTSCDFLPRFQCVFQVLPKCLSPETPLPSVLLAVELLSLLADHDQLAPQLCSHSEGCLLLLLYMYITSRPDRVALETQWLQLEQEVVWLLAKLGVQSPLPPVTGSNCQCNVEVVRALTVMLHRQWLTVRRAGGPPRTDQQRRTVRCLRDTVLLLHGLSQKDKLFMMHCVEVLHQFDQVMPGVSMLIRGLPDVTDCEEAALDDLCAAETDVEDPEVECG

Consider `C[C@@H]1COCCN1c1cc([C@@]2(O)C[C@H]3CC[C@@H](C2)O3)c2cnn(-c3cc[nH]n3)c2n1` (stereo in doubt) [Compound 121], for which inhibition in assay [1] was half-maximal at 0.9 nM (IC50).

Regarding `C[C@@H]1COCCN1c1cc(C2(C#N)CCNC2)c2cnn(-c3cc[nH]n3)c2n1` (some centres unmarked) [Compound 84], the IC50 (commonly the concentration that gives 50% inhibition) in assay [2] amounted to 9 nM.

Turning to `Cc1cc(-n2ncc3c(C(C)(C)C#N)cc(N4CCOC[C@H]4C)nc32)[nH]n1` [Compound 86], the IC50 in assay [2] is below 5 nM.

Regarding `C[C@@H]1COCCN1c1cc(N2CCNC(=O)C2)c2cnn(-c3ccn[nH]3)c2n1` [Compound 87], the IC50 in assay [2] turned out to be 10 nM.

For `C[C@@H]1COCCN1c1cc(-c2ccc(S(C)(=O)=O)cc2)c2cnn(-c3ccn[nH]3)c2n1` [Compound 89], the IC50 in assay [2] is 31 nM.

With `C[C@@H]1COCCN1c1cc(C(C)(C)C#N)c2cnn(-c3ncc[nH]3)c2n1` [Compound 90], the IC50 in assay [2] was found to be 165 nM.

For the compound `C[C@@H]1COCCN1c1cc(-c2ccccc2F)c2cnn(-c3ccn[nH]3)c2n1` [Compound 91], the IC50 in assay [2] is below 5 nM.

Turning to `C[C@@H]1COCCN1c1cc(-c2cccc(S(C)(=O)=O)c2)c2cnn(-c3ccn[nH]3)c2n1` [Compound 92], the IC50 in assay [2] amounted to 8 nM.

`C[C@@H]1COCCN1c1cc(C2(O)CCN(c3cccc(F)c3)CC2)c2cnn(-c3cc[nH]n3)c2n1` [Compound 93] had an IC50 in assay [1] of 0.5 nM.

As for `C[C@@H]1COCCN1c1cc(C2(O)CCN(c3ccc(Cl)cc3)CC2)c2cnn(-c3cc[nH]n3)c2n1` [Compound 94], the IC50 in assay [1] was 1.9 nM.

In turn, `C[C@@H]1COCCN1c1cc(C2(O)CCN(c3ccc(C#N)cc3)CC2)c2cnn(-c3cc[nH]n3)c2n1` [Compound 95] had an IC50 in assay [1] of 2 nM.

Compound `C[C@@H]1COCCN1c1cc(C2(O)CCN(c3ncccc3C(F)(F)F)CC2)c2cnn(-c3cc[nH]n3)c2n1` [Compound 96] registered an IC50 in assay [1] of 20 nM.

In turn, `C[C@@H]1COCCN1c1cc([C@]2(O)CC[C@H](c3ccccc3)CC2)c2cnn(-c3cc[nH]n3)c2n1` [Compound 97] gave an IC50 in assay [1] of 0.9 nM.

`C[C@@H]1COCCN1c1cc([C@]2(O)CC[C@@H](c3ccccc3)CC2)c2cnn(-c3cc[nH]n3)c2n1` [Compound 98]: the IC50 in assay [1] came to 1.2 nM.

As to `COC1CCC(O)(c2cc(N3CCOC[C@H]3C)nc3c2cnn3-c2cc[nH]n2)CC1` (some centres unmarked) [Compound 101], the IC50 in assay [1] worked out at 1 nM.

As for `COCC1CCC(O)(c2cc(N3CCOC[C@H]3C)nc3c2cnn3-c2cc[nH]n2)CC1` (some centres unmarked) [Compound 102], the IC50 in assay [1] came out at 0.9 nM.

In assay [1], `C[C@@H]1COCCN1c1cc(C2(O)CCC(C#N)CC2)c2cnn(-c3cc[nH]n3)c2n1` (some centres unmarked) [Compound 103] came in with an IC50 of 1.7 nM.

`C[C@@H]1COCCN1c1cc([C@]2(O)CCC[C@H](C(F)(F)F)C2)c2cnn(-c3cc[nH]n3)c2n1` [Compound 104]: the IC50 in assay [1] was 2.4 nM.

In assay [1], `C[C@@H]1COCCN1c1cc(C2(O)CCC3(CC2)COC3)c2cnn(-c3cc[nH]n3)c2n1` [Compound 105] displayed an IC50 of 1.1 nM.

As to `C[C@@H]1COCCN1c1cc([C@]2(O)CC[C@@](C)(C#N)CC2)c2cnn(-c3cc[nH]n3)c2n1` [Compound 106], in assay [1], it took 3.3 nM to reach half-maximal inhibition (IC50).

With `C[C@@H]1COCCN1c1cc(C2(O)CCOC3(CCC3)C2)c2cnn(-c3cc[nH]n3)c2n1` (some centres unmarked) [Compound 107], in assay [1], it took 2 nM to reach half-maximal inhibition (IC50).

For `C[C@@H]1COCCN1c1cc(C2(O)CCN(CC(F)F)CC2)c2cnn(-c3cc[nH]n3)c2n1` [Compound 108], the midpoint of inhibition in assay [1], the IC50, lay at 1.3 nM.

Consider `C[C@@H]1COCCN1c1cc(C2(O)CCN(C(C)(C)C)CC2)c2cnn(-c3cc[nH]n3)c2n1` [Compound 109], for which the IC50 in assay [1] came to 17 nM.

On to `C[C@@H]1COCCN1c1cc(C2(O)CCC3(CCOCC3)CC2)c2cnn(-c3cc[nH]n3)c2n1` [Compound 110], for which the IC50 in assay [1] was 0.7 nM.

`C[C@@H]1COCCN1c1cc(C2(O)CCCOCC2)c2cnn(-c3cc[nH]n3)c2n1` (some centres unmarked) [Compound 111] returned an IC50 in assay [1] of 2.4 nM.

As to `C[C@@H]1COCCN1c1cc([C@]2(O)CC[C@@]3(CCCO3)CC2)c2cnn(-c3cc[nH]n3)c2n1` [Compound 112], half-maximal inhibition in assay [1] (IC50) was put at 0.8 nM.

In the case of `C[C@@H]1COCCN1c1cc([C@]2(O)CC[C@]3(CCCO3)CC2)c2cnn(-c3cc[nH]n3)c2n1` [Compound 113], in assay [1], half-maximal inhibition (IC50) required 2.1 nM.

In turn, `C[C@@H]1COCCN1c1cc([C@]2(O)CC[C@H](C(F)(F)F)CC2)c2cnn(-c3cc[nH]n3)c2n1` [Compound 114] registered an IC50 in assay [1] of 0.8 nM.

On to `C[C@@H]1COCCN1c1cc(C2(O)CCN(c3ccc(F)cc3)CC2)c2cnn(-c3cc[nH]n3)c2n1` [Compound 116], for which half-maximal inhibition in assay [1] (IC50) was put at 1.2 nM.

The compound `C[C@@H]1COCCN1c1cc(C2(O)C3CCC2CN(C)C3)c2cnn(-c3cc[nH]n3)c2n1` (some centres unmarked) [Compound 117] displayed an IC50 in assay [1] of 38 nM.

`CC(C)N1CCC(O)(c2cc(N3CCOC[C@H]3C)nc3c2cnn3-c2cc[nH]n2)CC1` [Compound 118] had an IC50 in assay [1] of 6.4 nM.

For `C[C@@H]1COCCN1c1cc(C2(O)CC(C)(C)N(C)C(C)(C)C2)c2cnn(-c3cc[nH]n3)c2n1` [Compound 119], in assay [1], half-maximal inhibition (IC50) was put at 14 nM.

On to `C[C@@H]1COCCN1c1cc(C2(O)CCN(CC(F)(F)F)CC2)c2cnn(-c3cc[nH]n3)c2n1` [Compound 120], for which half-maximal inhibition in assay [1] (IC50) was put at 1.2 nM.

In the case of `C[C@@H]1COCCN1c1cc(C2(O)C[C@H]3CC[C@@H](C2)S3)c2cnn(-c3cc[nH]n3)c2n1` (some centres unmarked) [Compound 122], the midpoint of inhibition in assay [1], the IC50, lay at 1.1 nM.

On to `C[C@@H]1COCCN1c1cc(C2(O)CCC3(CC3)CC2)c2cnn(-c3cc[nH]n3)c2n1` [Compound 123], for which the IC50 in assay [1] worked out at 0.9 nM.

Turning to `C[C@@H]1COCCN1c1cc(-c2ccccc2S(=O)(=O)NC2CC2)c2cnn(-c3cc[nH]n3)c2n1` [Compound 124], it took 63 nM to reach half-maximal inhibition in assay [1] (IC50).

Take `C[C@@H]1COCCN1c1cc(-c2cccnc2N)c2cnn(-c3cc[nH]n3)c2n1` [Compound 125, (R)-3-(6-(3-methylmorpholino)-1-(1H-pyrazol-3-yl)-1H-pyrazolo[3,4-b]pyridin-4-yl)pyridin-2-amine]: the midpoint of inhibition in assay [1], the IC50, lay at 11 nM.

For the compound `Cc1nc(C(N)=O)c(-c2cc(N3CCOC[C@H]3C)nc3c2cnn3-c2cc[nH]n2)s1` [Compound 127], in assay [1], inhibition was half-maximal at 7 nM (IC50).

The compound `C[C@@H]1COCCN1c1cc(-c2ccccc2C(C)(C)O)c2cnn(-c3cc[nH]n3)c2n1` [Compound 128] yielded an IC50 in assay [1] of 2.4 nM.

Compound `C[C@@H]1COCCN1c1cc(-c2cccnc2C(N)=O)c2cnn(-c3cc[nH]n3)c2n1` [Compound 129] had an IC50 in assay [1] of 11 nM.

`C[C@@H]1COCCN1c1cc(-c2cccc(Cl)c2C(N)=O)c2cnn(-c3cc[nH]n3)c2n1` [Compound 130] yielded an IC50 in assay [1] of 13 nM.

Compound `C[C@@H]1COCCN1c1cc(-c2cccc(C(F)(F)F)c2C(N)=O)c2cnn(-c3cc[nH]n3)c2n1` [Compound 131] showed an IC50 in assay [1] of 1.8 nM.

`C[C@@H]1COCCN1c1cc(C2(O)CCC(C(C)(C)C)CC2)c2cnn(-c3ccn[nH]3)c2n1` (some centres unmarked) [Compound 132] gave an IC50 in assay [1] of 1.9 nM.

`C[C@@H]1COCCN1c1cc(C2(O)CCC(OC(F)(F)F)CC2)c2cnn(-c3ccn[nH]3)c2n1` (some centres unmarked) [Compound 133] yielded an IC50 in assay [1] of 1.5 nM.

On to `C[C@@H]1COCCN1c1cc(N2CCCOCC2=O)c2cnn(-c3cc[nH]n3)c2n1` [Compound 136], for which the IC50 in assay [1] stood at 46 nM.

`C[C@@H]1COCCN1c1cc(N2CCN(c3ccccn3)CC2)c2cnn(-c3cc[nH]n3)c2n1` [Compound 137] showed an IC50 in assay [1] of 2.1 nM.

The compound `C[C@@H]1COCCN1c1cc(-c2ccc(C(F)(F)F)nc2N)c2cnn(-c3cc[nH]n3)c2n1` [Compound 138] yielded a 50% inhibitory concentration (IC50) in assay [1] of 9.4 nM.

In the case of `Cc1ccc(-c2cc(N3CCOC[C@H]3C)nc3c2cnn3-c2cc[nH]n2)c(N)n1` [Compound 139], 4.2 nM corresponded to half-maximal inhibition in assay [1] (IC50).

In turn, `C[C@@H]1COCCN1c1cc(-c2cc(Cl)cnc2N)c2cnn(-c3cc[nH]n3)c2n1` [Compound 140] came in with an IC50 in assay [1] of 7.2 nM.

On to `C[C@@H]1COCCN1c1cc(-c2ccc(F)cc2C(F)(F)F)c2cnn(-c3cc[nH]n3)c2n1` [Compound 142], for which the IC50 in assay [1] is 3.6 nM.

Regarding `COc1ccc(-c2cc(N3CCOC[C@H]3C)nc3c2cnn3-c2cc[nH]n2)c(C(F)(F)F)c1` [Compound 143], in assay [1], the IC50 was found to be 7.2 nM.

For `C[C@@H]1COCCN1c1cc(-c2cccnc2C(F)(F)F)c2cnn(-c3cc[nH]n3)c2n1` [Compound 144], in assay [1], half-maximal inhibition (IC50) was put at 1.3 nM.

`C[C@@H]1COCCN1c1cc(-c2ccc(F)cc2S(C)(=O)=O)c2cnn(-c3cc[nH]n3)c2n1` [Compound 145]: 3.8 nM corresponded to half-maximal inhibition in assay [1] (IC50).

On to `C[C@@H]1COCCN1c1cc(-c2ccc(C3CC3)nc2N)c2cnn(-c3cc[nH]n3)c2n1` [Compound 146], for which half-maximal inhibition in assay [1] (IC50) required 3.1 nM.

Regarding `C[C@@H]1COCCN1c1cc(C2=C[C@H]3CC[C@@H](C2)O3)c2cnn(-c3cc[nH]n3)c2n1` [Compound 148], the 50% inhibitory concentration (IC50) in assay [1] came out at 2.5 nM.

In assay [1], `C[C@@H]1COCCN1c1nc2c(cnn2-c2cc[nH]n2)c(-c2ccccc2C(F)(F)F)c1Cl` [Compound 149] registered an IC50 of 27 nM.

Take `C[C@@H]1COCCN1c1cc(-c2ccccc2C(F)(F)F)c2c(=O)[nH]n(-c3ccn[nH]3)c2n1` [Compound 150, 6-[(3R)-3-methylmorpholin-4-yl]-1-(1H-pyrazol-5-yl)-4-[2-(trifluoromethyl)phenyl]-2H-pyrazolo[3,4-b]pyridin-3-one]: in assay [1], half-maximal inhibition (IC50) was put at 7.8 nM.

With `C[C@@H]1COCCN1c1cc(-c2cccnc2C(F)(F)F)c2c(=O)[nH]n(-c3ccn[nH]3)c2n1` [Compound 151], in assay [1], the midpoint of inhibition, the IC50, lay at 9.1 nM.

Regarding `C[C@@H]1COCCN1c1cc(-c2ccccc2S(C)(=O)=O)c2c(=O)[nH]n(-c3ccn[nH]3)c2n1` [Compound 152], inhibition in assay [1] was half-maximal at 22 nM (IC50).

The values above are taken from US12264155B2, “Compounds, pharmaceutical compositions, and methods of preparing compounds and of their use as ATR kinase inhibitors” (Repare Therapeutics Inc., priority 2018, dated 2025).
